Test: xn = mol fraction of the nth substance listed
Conditions: 333.15 K, Liquid, Vibrating tube method

CCCCCCCCCC [decane] + CCCO
Conditions	mass density [kg/m3]
5000 kPa, x2 = 0.3001	707.44
5010 kPa, x2 = 0.1391	703.13
5010 kPa, x2 = 0.6863	728.46
5020 kPa, x2 = 0.4326	712.1
5020 kPa, x2 = 0.8711	749.4
6000 kPa, x2 = 0.1391	704.1
6000 kPa, x2 = 0.1907	705.29
6000 kPa, x2 = 0.3001	708.43
6010 kPa, x2 = 0.4326	713.11
6010 kPa, x2 = 0.6863	729.45
6020 kPa, x2 = 0.8711	750.38
7000 kPa, x2 = 0.1391	705.07
7000 kPa, x2 = 0.4326	714.11
7000 kPa, x2 = 0.8711	751.38
7010 kPa, x2 = 0.3001	709.43
7020 kPa, x2 = 0.1907	706.27
7020 kPa, x2 = 0.6863	730.46
8000 kPa, x2 = 0.1391	706.06
8000 kPa, x2 = 0.4326	715.11
8010 kPa, x2 = 0.1907	707.25
8010 kPa, x2 = 0.6863	731.46
8020 kPa, x2 = 0.3001	710.42
8020 kPa, x2 = 0.8711	752.35
9010 kPa, x2 = 0.1391	707
9010 kPa, x2 = 0.1907	708.23
9010 kPa, x2 = 0.3001	711.39
9010 kPa, x2 = 0.4326	716.11
9010 kPa, x2 = 0.6863	732.47
9010 kPa, x2 = 0.8711	753.31
10000 kPa, x2 = 0.1391	707.95
10000 kPa, x2 = 0.4326	717.1
10010 kPa, x2 = 0.3001	712.39
10010 kPa, x2 = 0.6863	733.45
10020 kPa, x2 = 0.1907	709.15
10020 kPa, x2 = 0.8711	754.28
11000 kPa, x2 = 0.1907	710.11
11010 kPa, x2 = 0.1391	708.9
11010 kPa, x2 = 0.6863	734.43
11020 kPa, x2 = 0.3001	713.35
11020 kPa, x2 = 0.4326	718.06
11020 kPa, x2 = 0.8711	755.24
12000 kPa, x2 = 0.1907	711.08
12000 kPa, x2 = 0.4326	719.03
12010 kPa, x2 = 0.1391	709.82
12010 kPa, x2 = 0.6863	735.38
12020 kPa, x2 = 0.3001	714.31
12020 kPa, x2 = 0.8711	756.17
13000 kPa, x2 = 0.8711	757.09
13010 kPa, x2 = 0.1391	710.75
13010 kPa, x2 = 0.1907	712
13010 kPa, x2 = 0.4326	719.98
13010 kPa, x2 = 0.6863	736.35
13020 kPa, x2 = 0.3001	715.25
14000 kPa, x2 = 0.1907	712.92
14000 kPa, x2 = 0.8711	758.02
14010 kPa, x2 = 0.1391	711.65
14010 kPa, x2 = 0.3001	716.18
14020 kPa, x2 = 0.4326	720.92
14020 kPa, x2 = 0.6863	737.27
15010 kPa, x2 = 0.1391	712.53
15010 kPa, x2 = 0.1907	713.82
15010 kPa, x2 = 0.4326	721.82
15010 kPa, x2 = 0.6863	738.18
15010 kPa, x2 = 0.8711	758.93
15020 kPa, x2 = 0.3001	717.1
16010 kPa, x2 = 0.1391	713.4
16010 kPa, x2 = 0.1907	714.7
16010 kPa, x2 = 0.3001	717.99
16010 kPa, x2 = 0.4326	722.73
16010 kPa, x2 = 0.6863	739.1
16020 kPa, x2 = 0.8711	759.81
17000 kPa, x2 = 0.6863	740
17000 kPa, x2 = 0.8711	760.7
17010 kPa, x2 = 0.3001	718.88
17010 kPa, x2 = 0.4326	723.6
17020 kPa, x2 = 0.1391	714.27
17020 kPa, x2 = 0.1907	715.58
18000 kPa, x2 = 0.1391	715.12
18000 kPa, x2 = 0.1907	716.42
18000 kPa, x2 = 0.3001	719.72
18000 kPa, x2 = 0.4326	724.49
18000 kPa, x2 = 0.6863	740.88
18020 kPa, x2 = 0.8711	761.56
19010 kPa, x2 = 0.1391	715.93
19010 kPa, x2 = 0.1907	717.24
19010 kPa, x2 = 0.4326	725.32
19010 kPa, x2 = 0.6863	741.72
19020 kPa, x2 = 0.3001	720.57
19020 kPa, x2 = 0.8711	762.39
20000 kPa, x2 = 0.3001	721.37
20010 kPa, x2 = 0.1907	718.03
20010 kPa, x2 = 0.6863	742.58
20010 kPa, x2 = 0.8711	763.23
20020 kPa, x2 = 0.1391	716.72
20020 kPa, x2 = 0.4326	726.17

Source: the NIST ThermoML archive (doi:10.1021/acs.jced.8b00554)
